Data from patent US10881638B2, “Eye health composition” (Laboratoires Thea, priority 2015, dated 2021).

What was measured:
[1] = test system: VEGFR receptors (VEGFR1 and VEGFR2), p-VEGFR2, VEGF; assay: Western blot of the VEGF pathway in undifferentiated (pathological) ARPE-19 cells; format: cell-based, human; settings: undifferentiated ARPE-19, 24 h, 20 μM resveratrol (R20) or equivalent (A20)
Procedure: Cells studied: culture of undifferentiated ARPE-19 (ATCC® CRL-2302™) (human retinal pigment epithelium) cells.
The cells were maintained at 37° C., and in the presence of 5% CO2 in the medium DMEM/F12 (GIBCO; 31331), completed with 10% FBS (Lonza) and 15 mM HEPES (pH 7.4; GIBCO).
b) Incubation Between the Compositions (Formula A or B) and the Cells: 1, 5, 10 or 20 μM.
The 10 μM equivalent from formula B also corresponding to 0.115 mg/mL of formula B in DMEM/F12+1% FBS w/o phenol red.
The day prior to treatment, the medium was eliminated and replaced by DMEM/F12 without phenol red (GIBCO; 21041), completed with 1% FBS (Lonza) and 15 mM HEPES (pH 7.4; GIBCO).
After 24 h of stimulation, the media were eliminated, the cells were washed with PBS 1× then scrubbed in PBS 1×. The cells were centrifuged and the remainder was resuspended in the RIPA buffer along with a cocktail of protease inhibitors (Roche) and phosphatase inhibitors. The cells were lysed in ice for 30 minutes, then centrifuged. The protein concentration was determined by means of a protein quantification kit (Lowry kit, biorad). […] The membranes were again washed 3 times in 0.1% PBS-T and the signal was detected by ECL (Tebu bio). The images were recorded with the ChemiDoc imaging system and analyzed with Quantity One Software (Biorad) software.
The β-actin was also quantified in order to relativize the levels of expression.

[2] = test system: VEGFR receptors (VEGFR1 and VEGFR2), p-VEGFR2, VEGF; assay: Western blot of the VEGF pathway in differentiated (healthy) ARPE-19 cells; format: cell-based, human; settings: differentiated ARPE-19, 24 h, 20 μM resveratrol (R20)
Procedure: The protocol used is the same as the one described in the example II-2, except for the cells studied: Cells studied: culture of differentiated ARPE-19 (human retinal pigment epithelium) cells. The undifferentiated cells are seeded in T75 flasks. The cells are maintained at 37° C., and in the presence of 5% CO2 in the medium DMEM/F12 (GIBCO; 31331), completed with 10% FBS (Lonza) and 15 mM HEPES (pH 7.4; GIBCO). When the cells reach confluence, the medium is replaced by DMEM/F12 (GIBCO; 31331), completed with 1% FBS (Lonza) and HEPES (15 mM pH 7.4; GIBCO). The media were changed 2 times per week for 8 weeks. Said cells can be equated with undamaged or healthy retinal cells.

VEGF [3] = settings: in vitro, human retinal pigmentary epithelium cells (HRPE cells); cited from earlier work
VEGF [4] = settings: wet form of AMD, repeated intravitreal injections; cited from earlier work

Oc1ccc(/C=C/c2cc(O)cc(O)c2)cc1 [resveratrol]
expression of VEGF receptors, resveratrol alone versus composition [1]: makes it possible to reduce the expression of VEGF receptors
effect on VEGF receptors of healthy cells, resveratrol alone [2]: has no effect on healthy cells
overexpression of VEGF induced by cytokines (VEGF [3]): inhibiting in vitro the overexpression of VEGF

pegaptanib
effect of the treatment (VEGF [4]): little effect

B1: ranibizumab: VEGF inhibitor used since 2007 for the wet form of AMD (antibody, chains of the INN, looked up, V domains shown)
VH: EVQLVESGGGLVQPGGSLRLSCAASGYDFTHYGMNWVRQAPGKGLEWVGWINTYTGEPTYAADFKRRFTFSLDTSKSTAYLQMNSLRAEDTAVYYCAKYPYYYGTSHWYFDVWGQGTLVTVSS
VL: DIQLTQSPSSLSASVGDRVTITCSASQDISNYLNWYQQKPGKAPKVLIYFTSSLHSGVPSRFSGSGSGTDFTLTISSLQPEDFATYYCQQYSTVPWTFGQGTKVEIK
modifications: Fab
unresponsive or no longer responsive to the treatment (VEGF [4]): about 30%
